Experimental data as given in US20140350081A1, “INSECT G-COUPLED RECEPTORS USEFUL AS TARGETS FOR INSECTICIDES AND COMPOUNDS AND REAGENTS IDENTIFIED USING THE SAME” (priority 2011, published 2014).
Where two headings read alike, the source gives them in different places.

What was measured:
Ae. aegypti larvae = test: whole plant or invertebrate; format: in vivo; settings: Aedes aegypti, 24 h, read-out: average larval mortality
Procedure: Single dose-point and dose response in vivo mosquito bioassays were used to assess the toxicity of selected AaDop2 receptor antagonists identified in the chemical screen. Larvae of Ae. aegypti (Liverpool strain) were reared under standard laboratory conditions on a 12 hr day/night cycle at 75% RH and 28° C., and bioassays were conducted at room temperature (22-24° C.). Larvae were transferred from standard rearing trays into six-well tissue culture plates (Corning, Inc. Corning, N.Y.) using a small plastic pipette. Ten L4-stage larvae were included per well, each containing five ml of de-ionized water and an assigned drug concentration. Controls were conducted similarly but lacked a drug treatment. Bioassays employed a double-blind experimental design, and larval mortality was scored 24 hr following administration of drugs. Single dose-point assays were conducted using 400 μM drug and included three biological replicates each consisting of 100 larvae.

Isdop2 [1] = biological target: T1, Isdop2 (Ixodes scapularis, UniProt A0ACM8DGL0); test: cell-based
T1 sequence (A0ACM8DGL0 entry or part of it): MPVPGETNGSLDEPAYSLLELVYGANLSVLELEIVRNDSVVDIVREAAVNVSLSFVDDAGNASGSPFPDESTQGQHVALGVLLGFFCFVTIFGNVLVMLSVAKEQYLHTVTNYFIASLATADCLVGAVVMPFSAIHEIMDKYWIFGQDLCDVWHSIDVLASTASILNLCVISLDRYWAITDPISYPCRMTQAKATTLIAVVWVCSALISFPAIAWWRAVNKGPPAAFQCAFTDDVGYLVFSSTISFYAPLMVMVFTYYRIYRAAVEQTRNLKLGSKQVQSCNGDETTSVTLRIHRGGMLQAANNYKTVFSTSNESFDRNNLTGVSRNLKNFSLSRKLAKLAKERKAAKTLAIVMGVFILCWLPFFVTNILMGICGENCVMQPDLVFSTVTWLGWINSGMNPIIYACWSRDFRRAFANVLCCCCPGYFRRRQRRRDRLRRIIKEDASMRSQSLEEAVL

Isdop1 [2] = biological target: T2, Isdop1 (Ixodes scapularis, UniProt A0ACM8FJJ0); test: cAMP accumulation in HEK 293 cells transiently expressing Isdop1; format: cell-based; settings: for effect on dopamine-stimulated cAMP, Isdop1: 10 μM antagonist with 1 μM dopamine
Isdop2 [3] = biological target: T1, Isdop2; test: cAMP accumulation in HEK 293 cells transiently expressing Isdop2; format: cell-based; settings: for effect on dopamine-stimulated cAMP, Isdop2: 10 μM antagonist with 1 μM dopamine
Isdop1 [4] = biological target: T2, Isdop1; test: cAMP accumulation confirmation assay, cells stably expressing Isdop1; format: cell-based
Isdop2 [5] = biological target: T1, Isdop2; test: cAMP accumulation confirmation assay, cells stably expressing Isdop2; format: cell-based
AaDOP2 [6] = biological target: T3, AaDOP2 (Aedes aegypti, UniProt H6D5H2); test: CRELuc reporter dose-response in HEK293 cells stably expressing AaDOP2; format: cell-based; settings: for behaviour at the AaDOP2 receptor in follow up CRCs: HEK 293-CRELuc cells, FIG. 21A
T3 sequence (H6D5H2 entry or part of it): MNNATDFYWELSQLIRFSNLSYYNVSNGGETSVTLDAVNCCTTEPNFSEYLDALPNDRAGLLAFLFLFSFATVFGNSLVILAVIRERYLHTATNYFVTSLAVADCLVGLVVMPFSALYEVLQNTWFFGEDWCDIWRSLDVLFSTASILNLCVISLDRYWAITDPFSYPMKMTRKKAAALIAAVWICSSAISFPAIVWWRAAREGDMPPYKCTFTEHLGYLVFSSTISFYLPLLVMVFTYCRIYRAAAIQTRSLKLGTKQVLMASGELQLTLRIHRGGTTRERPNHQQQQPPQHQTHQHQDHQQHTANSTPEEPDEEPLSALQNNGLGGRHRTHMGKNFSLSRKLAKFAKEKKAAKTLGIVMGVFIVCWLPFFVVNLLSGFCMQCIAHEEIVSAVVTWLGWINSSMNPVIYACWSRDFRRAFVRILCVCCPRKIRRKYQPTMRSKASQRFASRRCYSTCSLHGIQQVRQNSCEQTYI

Isdop1 [7] = biological target: T2, Isdop1; test: CRE-Luc reporter assay, HEK cells stably expressing Isdop1; format: cell-based
Isdop2 [8] = biological target: T1, Isdop2; test: CRE-Luc reporter assay, HEK cells stably expressing Isdop2; format: cell-based
AaDOP2 [9] = biological target: T3, AaDOP2; test: AaDOP2 agonist screen against the LOPAC1280 library; format: cell-based; settings: 10 μM compound; percent of response to 1 μM dihydrexidine
AaDOP1 = AaDOP1 (Aedes aegypti, UniProt H6D5H1); test: CRELuc reporter dose-response in HEK293 cells stably expressing AaDOP1; format: cell-based
AaDOP1, sequence (H6D5H1 entry or part of it): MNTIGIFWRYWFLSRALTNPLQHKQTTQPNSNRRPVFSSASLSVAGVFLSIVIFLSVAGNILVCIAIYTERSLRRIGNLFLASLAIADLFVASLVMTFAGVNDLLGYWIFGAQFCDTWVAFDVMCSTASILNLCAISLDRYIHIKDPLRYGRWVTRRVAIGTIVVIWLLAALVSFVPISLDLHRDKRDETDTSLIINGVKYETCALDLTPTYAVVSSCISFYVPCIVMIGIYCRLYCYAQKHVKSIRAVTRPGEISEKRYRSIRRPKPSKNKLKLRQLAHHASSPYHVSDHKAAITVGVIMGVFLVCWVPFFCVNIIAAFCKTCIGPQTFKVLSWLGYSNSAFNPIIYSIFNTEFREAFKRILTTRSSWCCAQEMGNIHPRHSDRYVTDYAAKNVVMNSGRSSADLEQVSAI

AaDOP2 [10] = biological target: T3, AaDOP2; test: LOPAC1280 antagonist screen in HEK-CRELuc-Aadop2 cells; format: cell-based; settings: 10 μM compound, 300 nM dopamine, quadruplicate
AaDOP2 [11] = biological target: T3, AaDOP2; test: HTRF cAMP accumulation concentration response assay (Cisbio Dynamic 2); format: cell-based; settings: AaDOP2 expressing cells in the presence of dopamine; No Inhibition = <10% inhibition at 3 μM test compound; read-out: IC50 ± S.E.M. (nM), HTRF cAMP assay
Ae. aegypti L3 larvae [12] = test: whole plant or invertebrate; settings: Aedes aegypti
Ae. aegypti L3 larvae [13] = test: Ae. aegypti L3 concentration response and time course assays; format: in vivo, Aedes aegypti
Procedure: Briefly, chemistries were diluted to appropriate concentration in water and added to the wells of 24-well plates containing 5 L3 stage Ae. aegypti larvae to achieve a final concentration of 400, 200, 100, 50 and 25 μM in 1 ml sterile RO water. Chemistries were tested in quadruplicate at each concentration. […] Results reported here represent a minimum of three independent CRC experiments (i.e., n=3).

[14] = test system: adult male Blatella germanica; test: Cockroach contact assay (topical application); format: in vivo; settings: 200 mM compound
From the text: (§1) A series of whole organism bioassays was developed to further evaluate the toxicity of chemistries to a range of agricultural, veterinary and public health pests and non-target insects (Tables 12 and 13). These assays are designed to rapidly explore the biological activity spectrum of chemistries as well as to facilitate initial investigations of the mode of action of insecticidal compounds. Briefly, assays were developed for the German cockroach (Blatella germanica, urban pest), termite (Reticulitermes flavipes; urban pest), lone star tick (Amblyomma americana; veterinary and public health pest), soybean aphid (Aphis glycines, agricultural pest) and honeybee (Apis mellifera; beneficial, non-target insect). The assays were designed to test the toxicity and speed of kill of multiple chemistries on contact. Each of these assays was performed as a single point dose experiment in triplicate using either topical application of compound to the ventral thorax ([…]; 50-80 μg effective dose depending on compound) as is the case for our cockroach and honeybee assays, or 10 second immersion in a solution of the compound diluted in water or DMSO:EtOH to a final concentration of 100 μM. The assays were conducted in 24-well plate format with mortality assessment following incubation at 22° C. as described above. Commercial insecticides were incorporated in these assays to provide a positive control and permit initial comparative analyses. Lead chemistries identified in our in vivo screen have been evaluated in the cockroach and termite assays.

[15] = test system: adult Reticulitermes flavipes; test: Termite immersion assay; format: in vivo; settings: in vivo
From the text: A series of whole organism bioassays was developed to further evaluate the toxicity of chemistries to a range of agricultural, veterinary and public health pests and non-target insects (Tables 12 and 13). These assays are designed to rapidly explore the biological activity spectrum of chemistries as well as to facilitate initial investigations of the mode of action of insecticidal compounds. Briefly, assays were developed for the German cockroach (Blatella germanica, urban pest), termite (Reticulitermes flavipes; urban pest), lone star tick (Amblyomma americana; veterinary and public health pest), soybean aphid (Aphis glycines, agricultural pest) and honeybee (Apis mellifera; beneficial, non-target insect). The assays were designed to test the toxicity and speed of kill of multiple chemistries on contact. Each of these assays was performed as a single point dose experiment in triplicate using either topical application of compound to the ventral thorax (1 μl of a […] compound solution in 1:1 v:v DMSO:EtOH vehicle; 50-80 μg effective dose depending on compound) as is the case for our cockroach and honeybee assays, or 10 second immersion in a solution of the compound diluted in water or DMSO:[…] The assays were conducted in 24-well plate format with mortality assessment following incubation at 22° C. as described above. Commercial insecticides were incorporated in these assays to provide a positive control and permit initial comparative analyses. Lead chemistries identified in our in vivo screen have been evaluated in the cockroach and termite assays.

[16] = test system: adult male Blatella germanica; test: Cockroach assay of Table 16 (title contact assay, text feeding assay); format: in vivo; settings: 200 mM compound
From the text: as §1

AaDOP2 [17] = biological target: T3, AaDOP2; settings: read-out: Affinity (Aedesdop2); values equal the Table 3 IC50 values
Ae. aegypti L3 larvae [18] = settings: 400 μM, three independent experiments, listed as Cis-flupenthixol
[19] = read-out: % Inhibition (of response to dopamine), Isdop2 screen
[20] = 10 μM biogenic amine, 300 nM propranolol, cAMP accumulation, mean±standard error
[21] = 10 μM antagonist, 1 μM dopamine
[22] = 10 μM antagonist with 1 μM dopamine, relative to dopamine alone
[23] = 48 h, read-out: Toxicity to Aedes aegypti larvae (mortality) 48 hours, 400 μM, L3 larvae, three independent experiments
[24] = 72 h, read-out: Toxicity to Aedes aegypti larvae (mortality) 72 hours, 400 μM, L3 larvae, three independent experiments

CN(C)CCC=C1c2ccccc2COc2ccccc21 (mixture of isomers) [Doxepin, ((Z)-3-(dibenzo[b,e]oxepin-11(6H)-ylidene)-N,N-dimethylpropan-1-amine)]
mortality at 400 µM (Ae. aegypti larvae): 57%
inhibition at 10 µM (Isdop2 [1]; [19]): 87%

CC(C)(C)[C@]1(O)CCN2CC3c4ccccc4CCc4cccc(c43)[C@@H]2C1 (single isomer, unassigned; (+)) [(+)-Butaclamol, 3-(1,1-dimethylethyl)-2,3,4,4a,8,9,13b,14-octahydro-1H-benzo[6,7]cyclohepta[1,2,3-de]pyrido[2,1-a]isoquinolin-3-ol]
effect on dopamine-stimulated cAMP, Isdop1 (Isdop1 [2]): did not cause a similar response
effect on dopamine-stimulated cAMP, Isdop2 (Isdop2 [3]): antagonistic effects
IC50 (Isdop1 [4]): 3.5 µM
IC50 (Isdop2 [5]): 0.32 µM

CNC[C@H](O)c1ccc(O)c(O)c1 [Epinephrine]
behaviour at the AaDOP2 receptor in follow up CRCs (AaDOP2 [6]): partial agonists
EC50 (Isdop1 [7]): 1.9 ± 0.3 µM
EC50 (Isdop2 [8]): 3.5 ± 1 µM
% of DHX (AaDOP2 [9]): 90%

NC[C@H](O)c1ccc(O)c(O)c1 [Norepinephrine]
EC50 (AaDOP1; HEK293 cells stably expressing CRELuc reporter and AaDOP1): 0.76 ± 0.18 µM
behaviour at the AaDOP2 receptor in follow up CRCs (AaDOP2 [6]): partial agonists
Stimulatory response (fold-over-basal) Isdop1 (Isdop1 [2]; [20]): 1.46 ± 0.10 fold-over-basal
Stimulatory response (fold-over-basal) Isdop2 (Isdop2 [3]; [20]): 2.43 ± 0.65 fold-over-basal
EC50 (Isdop1 [7]): 2.2 ± 0.3 µM
EC50 (Isdop2 [8]): 4.3 ± 1.3 µM
% of DHX (AaDOP2 [9]): 86%

CN1CCc2cc(Cl)c(O)cc2C(c2ccccc2)C1 (stereo not shown) [SCH23390, 8-chloro-3-methyl-5-phenyl-1,2,4,5-tetrahydro-3-benzazepin-7-ol]
inhibition of dopamine-mediated stimulation of AaDOP1 (AaDOP1; [21]): robustly inhibited
inhibition of dopamine-mediated stimulation of AaDOP2 (AaDOP2 [6]; [21]): robustly inhibited
% of the SCH23390 effect (AaDOP2 [10]): 83%
IC50 (AaDOP2 [11]): 1300 nM
effect on dopamine-stimulated cAMP, Isdop1 (Isdop1 [2]): significant reduction in levels of intracellular cAMP
effect on dopamine-stimulated cAMP, Isdop2 (Isdop2 [3]): antagonistic effects
inhibition of luciferase activity Isdop1 (Isdop1 [7]; [22]): 74%
effect on constitutive activity of Isdop1 (Isdop1 [7]; antagonist alone, CRE-Luc): inhibition of the constitutive activity of Isdop1 was observed
inhibition of luciferase activity Isdop2 (Isdop2 [8]; [22]): 69%
inhibition at 10 µM (Isdop2 [1]; [19]): 77%
inhibition at 10 µM (Isdop2 [1]; read-out: average inhibitory effect of antagonist control across all sixteen plates): 86 ± 6%
IC50 (Isdop1 [4]): 0.057 µM
IC50 (Isdop2 [5]): 0.12 µM
mortality at 400 µM (Ae. aegypti L3 larvae [12]; 24 h, read-out: Toxicity to Aedes aegypti larvae (mortality) 24 hours, 400 μM, L3 larvae, three independent experiments): 3%
mortality at 400 µM (Ae. aegypti L3 larvae [12]; [23]): 23%
mortality at 400 µM (Ae. aegypti L3 larvae [12]; [24]): 47%

OCCN1CCN(CC/C=C2/c3ccccc3Sc3ccc(C(F)(F)F)cc32)CC1 [cis-(Z)-Flupenthixol, ((Z)-2-(4-(3-(2-(trifluoromethyl)-9H-thioxanthen-9-ylidene)propyl)piperazin-1-yl)ethanol)]
% of the SCH23390 effect (AaDOP2 [10]): 88%
IC50 (AaDOP2 [11]): 0.35 ± 0.07 nM
LT50 (Ae. aegypti L3 larvae [13]; 400 μM, L3 larval time course assay): 54 min
LC50 (Ae. aegypti L3 larvae [13]; Aedes aegypti): 88 µM
% Mortality 24 hrs [14]: 10%
% Mortality 48 hrs [14]: 10%
% Mortality 72 hrs [14]: 10%
% Mortality 120 hrs [14]: 20%
% Mortality 240 hrs [14]: 20%
mortality of adult termites [15]: 70-100%
% Mortality 24 hrs [16]: 3%
% Mortality 48 hrs [16]: 10%
% Mortality 72 hrs [16]: 10%
% Mortality 120 hrs [16]: 20%
inhibition at 10 µM (Isdop2 [1]; [19]): 92%
IC50 (Isdop1 [4]): 3.7 µM
IC50 (Isdop2 [5]): 0.87 µM
IC50 (AaDOP2 [17]): 0.02 µM
Toxicity to Aedes aegypti larvae (mortality) 24 hours (Ae. aegypti L3 larvae [18]): 100%
mortality at 400 µM (Ae. aegypti L3 larvae [12]; 0.5 h, read-out: percent mortality 0.5 hr, 400 uM, L3 larvae, value for this scoring time): 10%
mortality at 400 µM (Ae. aegypti L3 larvae [12]; 1 h, read-out: percent mortality 1 hr, 400 uM, L3 larvae, per scoring time): 30%
mortality at 400 µM (Ae. aegypti L3 larvae [12]; 2 h, read-out: percent mortality 2 hr, 400 uM, L3 larvae, per scoring time): 10%
mortality at 400 µM (Ae. aegypti L3 larvae [12]; 3 h, read-out: mortality within three hours, 400 μM, L3 larvae): > 70%
mortality at 400 µM (Ae. aegypti L3 larvae [12]; 3 h, read-out: percent mortality 3 hr, 400 uM, L3 larvae, per scoring time): 10%
mortality at 400 µM (Ae. aegypti L3 larvae [12]; 4 h, read-out: percent mortality 4 hr, 400 uM, L3 larvae, per scoring time): 0%
mortality at 400 µM (Ae. aegypti L3 larvae [12]; 24 h, read-out: percent mortality 24 hr, 400 uM, L3 larvae, per scoring time): 0%
mortality at 400 µM (Ae. aegypti L3 larvae [12]; [23]): 100%
mortality at 400 µM (Ae. aegypti L3 larvae [12]; 48 h, read-out: percent mortality 48 hr, 400 uM, L3 larvae, per scoring time): 0%
mortality at 400 µM (Ae. aegypti L3 larvae [12]; 72 h, read-out: Cumulative % Mortality (72 hrs), 400 uM, L3 larvae): 100%
mortality at 400 µM (Ae. aegypti L3 larvae [12]; [24]): 100%
mortality at 400 µM (Ae. aegypti L3 larvae [12]; 72 h, read-out: percent mortality 72 hr, 400 uM, L3 larvae, per scoring time): 0%
